According to patent US20250223259A1, “PROTEASE INHIBITORS FOR TREATING OR PREVENTING CORONAVIRUS INFECTION” (Merck Sharp & Dohme LLC, priority 2022, published 2025):

Target: SARS2 coronavirus 3CL protease (Severe acute respiratory syndrome coronavirus 2 (2019-nCoV) (SARS-CoV-2), UniProt P0DTD1)
Assay: SARS2 Coronavirus 3CL Protease Assay (FRET)
Format: biochemical
Details: SARS2 3CLPro FRET assay; 5 nM enzyme, 30 min pre-incubation with compound, 15 uM peptide substrate, 4 h room temperature
Protocol: The enzymatic activity of SARS2 coronavirus 3CL protease was determined in a FRET (fluorescence resonance energy transfer)-based assay measuring the cleavage of a peptide substrate by recombinantly expressed and purified enzyme. Cleavage of the peptide SEQ ID NO:1 (CPC Scientific) by SARS2 3CL protease was measured in reaction buffer (50 mM Hepes pH 7.5, 0.01% Triton X-100, 0.01% BSA, 2 mM DTT). SARS2 3CL protease (5 nM final concentration) was pre-incubated with compound for 30 minutes before reaction initiation with peptide substrate (15 uM final concentration). Room temperature reactions (4 h) were quenched by addition of a high dose of inhibitor and read on an appropriate plate reader (excitation wavelength=495 nm, emission wavelength=520 nm). Data were analyzed by a standard 4 parameter fit to determine IC50 values.

| SMILES | IC50 |
| --- | --- |
| COC(=O)N[C@H](C(=O)N1CCCC(C)C1C(=O)N[C@@H](CCC(C)(F)F)C(=O)C(=O)NC1CC1)C(C)(C)C (single isomer, unassigned) [Example 49, Methyl ((S)-1-((2(R or S),3(R or S))-2-(((S)-1-(cyclopropylamino)-6,6-difluoro-1,2-dioxoheptan-3-yl)carbamoyl)-3-methylpiperidin-1-yl)-3,3-dimethyl-1-oxobutan-2-yl)carbamate] | 60 nM |
| COC(=O)N[C@H](C(=O)N1CCC(C)C1C(=O)N[C@@H](CCC(C)(F)F)C(=O)C(=O)NC1CC1)C(C)(C)C (single isomer, unassigned) [Example 51, Methyl ((S)-1-((2(R or S),3(R or S))-2-(((S)-1-(cyclopropylamino)-6,6-difluoro-1,2-dioxoheptan-3-yl)carbamoyl)-3-methylpyrrolidin-1-yl)-3,3-dimethyl-1-oxobutan-2-yl)carbamate] | 97 nM |
| COC(=O)N[C@H](C(=O)N1CC(C)(C)CCC1C(=O)N[C@@H](CCC(C)(F)F)C(=O)C(=O)NC1CC1)C(C)(C)C (single isomer, unassigned) [Example 52, Methyl ((S)-1-(R or S)-2-(((S)-1-(cyclopropylamino)-6,6-difluoro-1,2-dioxoheptan-3-yl)carbamoyl)-5,5-dimethylpiperidin-1-yl)-3,3-dimethyl-1-oxobutan-2-yl)carbamate] | 144 nM |
| COC(=O)N[C@H](C(=O)N1CC(C2CCOC2)C[C@H]1C(=O)N[C@@H](CCC(C)(F)F)C(=O)C(=O)NC1CC1)C(C)(C)C (single isomer, unassigned) [Example 54, Methyl ((S)-1-((2S,4(R or S))-2-(((S)-1-(cyclopropylamino)-6,6-difluoro-1,2-dioxoheptan-3-yl)carbamoyl)-4-((R or S)-tetrahydrofuran-3-yl)pyrrolidin-1-yl)-3,3-dimethyl-1-oxobutan-2-yl)carbamate] | 201 nM |
| COC(=O)N[C@H](C(=O)N1CCCCC1C(=O)N[C@@H](CCC(C)(F)F)C(=O)C(=O)NC1CC1)C(C)(C)C (single isomer, unassigned) [Example 55, Methyl ((S)-1-((S or R)-2-(((S)-1-(cyclopropylamino)-6,6-difluoro-1,2-dioxoheptan-3-yl)carbamoyl)piperidin-1-yl)-3,3-dimethyl-1-oxobutan-2-yl)carbamate: methyl ((S)-1-((R or S)-2-(((S)-1-(cyclopropylamino)-6,6-difluoro-1,2-dioxoheptan-3-yl)carbamoyl)piperidin-1-yl)-3,3-dimethyl-1-oxobutan-2-yl)carbamate] | 239 nM |
| COC(=O)N[C@H](C(=O)N1CC2(CCC(F)(F)CC2)CC1C(=O)N[C@@H](CCC(C)(F)F)C(=O)C(=O)NC1CC1)C(C)(C)C (single isomer, unassigned) [Example 56, Methyl ((S)-1-((R or S)-(3-(((S)-1-(cyclopropylamino)-6,6-difluoro-1,2-dioxoheptan-3-yl)carbamoyl)-8,8-difluoro-2-azaspiro[4.5]decan-2-yl)-3,3-dimethyl-1-oxobutan-2-yl)carbamate] | 291 nM |
| COC(=O)N[C@H](C(=O)N1CC(C2COC2)C[C@H]1C(=O)N[C@@H](CCC(C)(F)F)C(=O)C(=O)NC1CC1)C(C)(C)C (single isomer, unassigned) [Example 57, Methyl ((S)-1-((2S, 4(R or S))-2-(((S)-1-(cyclopropylamino)-6,6-difluoro-1,2-dioxoheptan-3-yl)carbamoyl)-4-(oxetan-3-yl)pyrrolidin-1-yl)-3,3-dimethyl-1-oxobutan-2-yl)carbamate] | 305 nM |
| COC(=O)N[C@H](C(=O)N1CCC(O)(C(F)(F)F)C[C@H]1C(=O)N[C@@H](CCC(C)(F)F)C(=O)C(=O)NC1CC1)C(C)(C)C (single isomer, unassigned) [Example 58, Methyl ((S)-1-((2S, 4(R or S))-2-(((S)-1-(cyclopropylamino)-6,6-difluoro-1,2-dioxoheptan-3-yl)carbamoyl)-4-hydroxy-4-(trifluoromethyl)piperidin-1-yl)-3,3-dimethyl-1-oxobutan-2-yl)carbamate] | 347 nM |
| COC(=O)NC(C(=O)N1CC2(CCCCC2)C[C@H]1C(=O)N[C@@H](CCC(C)(F)F)C(=O)C(=O)NC1CC1)C1CCC1 (single isomer, unassigned) [Example 63, Methyl ((R or S)-1-cyclobutyl-2-((S)-3-(((S)-1-(cyclopropylamino)-6,6-difluoro-1,2-dioxoheptan-3-yl)carbamoyl)-2-azaspiro[4.5]decan-2-yl)-2-oxoethyl)carbamate] | 32 nM |
| CCC1CCN(C(=O)[C@@H](NC(=O)OC)C(C)(C)C)C1C(=O)N[C@@H](CCC(C)(F)F)C(=O)C(=O)NC1CC1 (single isomer, unassigned) [Example 72, Methyl ((S)-1-((2(R or S),3(R or S))-2-(((S)-1-(cyclopropylamino)-6,6-difluoro-1,2-dioxoheptan-3-yl)carbamoyl)-3-ethylpyrrolidin-1-yl)-3,3-dimethyl-1-oxobutan-2-yl)carbamate] | 48 nM |
| COC(=O)N[C@H](C(=O)N1CCC(C)(C)C1C(=O)N[C@@H](CCC(C)(F)F)C(=O)C(=O)NC1CC1)C(C)(C)C (single isomer, unassigned) [Example 73, Methyl ((S)-1-((R or S)-2-(((S)-1-(cyclopropylamino)-6,6-difluoro-1,2-dioxoheptan-3-yl)carbamoyl)-3,3-dimethylpyrrolidin-1-yl)-3,3-dimethyl-1-oxobutan-2-yl)carbamate] | 60 nM |
| COC(=O)N[C@H](C(=O)N1C(C(=O)N[C@@H](CCC(C)(F)F)C(=O)C(=O)NC2CC2)[C@H]2CC[C@@H]1C2)C(C)(C)C (single isomer, unassigned) [Example 77, Methyl ((S)-1-((1R, 3(R or S),4S)-3-(((S)-1-(cyclopropylamino)-6,6-difluoro-1,2-dioxoheptan-3-yl)carbamoyl)-2-azabicyclo[2.2.1]heptan-2-yl)-3,3-dimethyl-1-oxobutan-2-yl)carbamate] | 133 nM |
| COC(=O)N[C@H](C(=O)N1CC(C(F)(F)F)CCC1C(=O)N[C@@H](CCC(C)(F)F)C(=O)C(=O)NC1CC1)C(C)(C)C (single isomer, unassigned) [Example 82, methyl ((S)-1-((2S,5S or 2R,5R)-2-(((S)-1-(cyclopropylamino)-6,6-difluoro-1,2-dioxoheptan-3-yl)carbamoyl)-5-(trifluoromethyl)piperidin-1-yl)-3,3-dimethyl-1-oxobutan-2-yl)carbamate] | 51 nM |
| COC(=O)N[C@H](C(=O)N1CCC2CC2[C@H]1C(=O)N[C@@H](CCC(C)(F)F)C(=O)C(=O)NC1CC1)C(C)(C)C (single isomer, unassigned) [Example 83, methyl ((S)-1-((1R,2S,6R or 1R,2S,6S)-2-(((S)-1-(cyclopropylamino)-6,6-difluoro-1,2-dioxoheptan-3-yl)carbamoyl)-3-azabicyclo[4.1.0]heptan-3-yl)-3,3-dimethyl-1-oxobutan-2-yl)carbamate] | 83 nM |
| COC(=O)N[C@H](C(=O)N1CC2CC2C[C@H]1C(=O)N[C@@H](CCC(C)(F)F)C(=O)C(=O)NC1CC1)C(C)(C)C (single isomer, unassigned) [Example 84, methyl ((S)-1-((1S,4S,6S or 1R,4S,6R)-4-(((S)-1-(cyclopropylamino)-6,6-difluoro-1,2-dioxoheptan-3-yl)carbamoyl)-3-azabicyclo[4.1.0]heptan-3-yl)-3,3-dimethyl-1-oxobutan-2-yl)carbamate] | 96 nM |
| COC(=O)N[C@H](C(=O)N1CCCC(C2CC2)C1C(=O)N[C@@H](CCC(C)(F)F)C(=O)C(=O)NC1CC1)C(C)(C)C (single isomer, unassigned) [Example 90, methyl ((S)-1-((2S,3R or 2R,3S)-3-cyclopropyl-2-(((S)-1-(cyclopropylamino)-6,6-difluoro-1,2-dioxoheptan-3-yl)carbamoyl)piperidin-1-yl)-3,3-dimethyl-1-oxobutan-2-yl)carbamate] | 16 nM |
| CNC(=O)C(=O)[C@H](CCC(C)(F)F)NC(=O)[C@@H]1CC2(CN1C(=O)[C@@H](NC(=O)OC)C(C)(C)C)CC2(F)F (single isomer, unassigned) [Example 93, methyl ((S)-1-((3(S or R),6S)-6-(((S)-6,6-difluoro-1-(methylamino)-1,2-dioxoheptan-3-yl)carbamoyl)-1,1-difluoro-5-azaspiro[2.4]heptan-5-yl)-3,3-dimethyl-1-oxobutan-2-yl)carbamate] | 28 nM |
| CNC(=O)C(=O)[C@H](CCC(C)(F)F)NC(=O)C1C2CC(C)(C)C2CN1C(=O)[C@@H](NC(=O)OC)C(C)(C)C (single isomer, unassigned) [Example 95, methyl ((S)-1-((1S,2S,5S or 1R,2R,5R)-2-(((S)-6,6-difluoro-1-(methylamino)-1,2-dioxoheptan-3-yl)carbamoyl)-6,6-dimethyl-3-azabicyclo[3.2.0]heptan-3-yl)-3,3-dimethyl-1-oxobutan-2-yl)carbamate] | 5 nM |
| CNC(=O)C(=O)[C@H](CCC(C)(F)F)NC(=O)C1CC(C)(F)CCN1C(=O)[C@@H](NC(=O)OC)C(C)(C)C (single isomer, unassigned) [Example 97, methyl ((S)-1-((2S,4S or 2R,4R)-2-(((S)-6,6-difluoro-1-(methylamino)-1,2-dioxoheptan-3-yl)carbamoyl)-4-fluoro-4-methylpiperidin-1-yl)-3,3-dimethyl-1-oxobutan-2-yl)carbamate] | 19 nM |
| COC(=O)N[C@H](C(=O)N1CC2(C(F)(F)F)CCCC2C1C(=O)N[C@@H](CCC(C)(F)F)C(=O)C(=O)NC1CC1)C(C)(C)C (single isomer, unassigned) [Example 98, methyl ((S)-1-((1S,3aS,6aS or 1R,3aR,6aR)-1-(((S)-1-(cyclopropylamino)-6,6-difluoro-1,2-dioxoheptan-3-yl)carbamoyl)-3a-(trifluoromethyl)hexahydrocyclopenta[c]pyrrol-2(1H)-yl)-3,3-dimethyl-1-oxobutan-2-yl)carbamate] | 77 nM |
